Laboratory results from article PMC7265341, “Quantifying CDK inhibitor selectivity in live cells” (Nature Communications, 2020).
Read-outs that look alike come from different tables or passages of the source.

Experiments:
CDK7 = CDK7 (Homo sapiens, UniProt P50613); experiment: NanoBRET live-cell target engagement, NanoLuc-CDK7 in HEK-293; assay type: binding; conditions: read-out: CDK7 Inhibition at 10µM (%), 10µM
CDK6/Cyclin D1 = CDK6/Cyclin D1 (Homo sapiens, UniProt Q00534); experiment: NanoBRET live-cell target engagement, NanoLuc-CDK6/Cyclin D1 in HEK-293; assay type: binding; conditions: 10µM, read-out: CDK6/D1 Inhibition at 10µM (%)
CDK19/Cyclin C = CDK19/Cyclin C (Homo sapiens, UniProt Q9BWU1); experiment: NanoBRET live-cell target engagement, NanoLuc-CDK19/Cyclin C in HEK-293; conditions: read-out: CDK19/C Inhibition at 10µM (%), 10µM
CDK17/Cyclin Y = CDK17/Cyclin Y (Homo sapiens, UniProt Q00537); experiment: NanoBRET live-cell target engagement, CDK17-NanoLuc/Cyclin Y in HEK-293; assay type: binding; conditions: 10µM, read-out: CDK17/Y Inhibition at 10µM (%)
CDK20/Cyclin H = CDK20/Cyclin H (Homo sapiens, UniProt Q8IZL9); experiment: NanoBRET live-cell target engagement, NanoLuc-CDK20/Cyclin H in HEK-293; assay type: binding; conditions: 10µM, read-out: CDK20/H Inhibition at 10µM (%)
CDK16/Cyclin Y = CDK16/Cyclin Y (Homo sapiens, UniProt Q00536); experiment: NanoBRET live-cell target engagement, CDK16-NanoLuc/Cyclin Y in HEK-293; assay type: binding; conditions: 10µM, read-out: CDK16/Y Inhibition at 10µM (%)
CDK14/Cyclin Y = CDK14/Cyclin Y (Homo sapiens, UniProt O94921); experiment: NanoBRET live-cell target engagement, CDK14-NanoLuc/Cyclin Y in HEK-293; assay type: binding; conditions: 10µM, read-out: CDK14/Y Inhibition at 10µM (%)
CDK8/Cyclin C = CDK8/Cyclin C (Homo sapiens, UniProt P49336); experiment: NanoBRET live-cell target engagement, NanoLuc-CDK8/Cyclin C in HEK-293; assay type: binding; conditions: 10µM, read-out: CDK8/C Inhibition at 10µM (%)
Sequence of CDK8/Cyclin C (P49336 whole entry): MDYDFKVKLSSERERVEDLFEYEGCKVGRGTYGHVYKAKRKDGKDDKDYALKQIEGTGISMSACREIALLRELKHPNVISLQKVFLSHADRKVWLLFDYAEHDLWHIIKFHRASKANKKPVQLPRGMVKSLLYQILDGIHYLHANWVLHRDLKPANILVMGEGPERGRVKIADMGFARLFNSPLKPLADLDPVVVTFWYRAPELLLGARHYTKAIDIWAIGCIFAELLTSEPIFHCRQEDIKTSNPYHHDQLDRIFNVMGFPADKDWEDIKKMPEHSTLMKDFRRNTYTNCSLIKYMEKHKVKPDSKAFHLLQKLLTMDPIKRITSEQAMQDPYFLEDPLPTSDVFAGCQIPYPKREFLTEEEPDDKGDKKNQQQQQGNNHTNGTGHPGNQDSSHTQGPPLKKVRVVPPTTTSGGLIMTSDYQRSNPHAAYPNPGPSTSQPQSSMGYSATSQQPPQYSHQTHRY
Sequence of CDK8/Cyclin C (P24863 whole entry partner): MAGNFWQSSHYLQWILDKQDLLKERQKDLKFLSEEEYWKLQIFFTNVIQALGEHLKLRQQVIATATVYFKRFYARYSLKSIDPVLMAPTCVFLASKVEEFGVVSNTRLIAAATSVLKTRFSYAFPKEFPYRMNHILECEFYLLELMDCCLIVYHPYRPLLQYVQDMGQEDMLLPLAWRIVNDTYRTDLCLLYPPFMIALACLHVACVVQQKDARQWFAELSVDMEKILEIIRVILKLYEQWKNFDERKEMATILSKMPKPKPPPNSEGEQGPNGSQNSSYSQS

CDK2/Cyclin E1 = CDK2/Cyclin E1 (Homo sapiens, UniProt P24941); experiment: NanoBRET live-cell target engagement, CDK2-NanoLuc/Cyclin E1 in HEK-293; assay type: binding; conditions: 10µM, read-out: CDK2/E1 Inhibition at 10µM (%)
CDK1/Cyclin E1 = CDK1/Cyclin E1 (Homo sapiens, UniProt P06493); experiment: NanoBRET live-cell target engagement, CDK1-NanoLuc/Cyclin E1 in HEK-293; assay type: binding; conditions: 10µM, read-out: CDK1/E1 Inhibition at 10µM (%)
Sequence of CDK1/Cyclin E1 (P06493 whole entry): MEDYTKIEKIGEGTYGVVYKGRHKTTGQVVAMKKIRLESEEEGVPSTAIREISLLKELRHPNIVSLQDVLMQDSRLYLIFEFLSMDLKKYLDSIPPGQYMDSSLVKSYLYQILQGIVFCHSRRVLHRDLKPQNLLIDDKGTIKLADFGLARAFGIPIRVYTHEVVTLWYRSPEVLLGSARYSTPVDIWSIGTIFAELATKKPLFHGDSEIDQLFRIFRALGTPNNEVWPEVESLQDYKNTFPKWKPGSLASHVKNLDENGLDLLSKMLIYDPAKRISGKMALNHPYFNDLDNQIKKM
Sequence of CDK1/Cyclin E1 (P24864 whole entry partner): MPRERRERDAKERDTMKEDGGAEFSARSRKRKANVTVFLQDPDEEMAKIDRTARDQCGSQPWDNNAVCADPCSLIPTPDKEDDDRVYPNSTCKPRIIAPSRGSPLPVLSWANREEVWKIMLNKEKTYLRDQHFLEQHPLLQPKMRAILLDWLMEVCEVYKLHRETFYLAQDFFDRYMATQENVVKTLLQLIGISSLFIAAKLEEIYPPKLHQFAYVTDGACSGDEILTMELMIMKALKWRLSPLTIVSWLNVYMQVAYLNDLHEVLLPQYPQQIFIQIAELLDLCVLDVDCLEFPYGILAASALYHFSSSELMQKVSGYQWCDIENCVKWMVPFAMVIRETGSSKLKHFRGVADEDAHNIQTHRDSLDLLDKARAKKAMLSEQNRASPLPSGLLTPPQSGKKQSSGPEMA

CDK3/Cyclin E1 = CDK3/Cyclin E1 (Homo sapiens, UniProt Q00526); experiment: NanoBRET live-cell target engagement, CDK3-NanoLuc/Cyclin E1 in HEK-293; assay type: binding; conditions: 10µM, read-out: CDK3/E1 Inhibition at 10µM (%)
Sequence of CDK3/Cyclin E1 (Q00526 whole entry): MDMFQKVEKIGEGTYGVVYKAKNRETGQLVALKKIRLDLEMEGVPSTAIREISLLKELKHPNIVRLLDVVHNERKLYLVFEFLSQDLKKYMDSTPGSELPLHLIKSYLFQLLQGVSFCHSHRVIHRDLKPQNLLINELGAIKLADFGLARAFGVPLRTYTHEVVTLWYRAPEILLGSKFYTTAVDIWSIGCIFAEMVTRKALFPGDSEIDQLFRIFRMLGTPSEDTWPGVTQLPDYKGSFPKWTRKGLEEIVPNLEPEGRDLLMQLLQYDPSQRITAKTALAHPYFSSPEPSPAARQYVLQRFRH
Sequence of CDK3/Cyclin E1 (P24864 whole entry partner): as the sequence (P24864 whole entry partner) above

CDK10/Cyclin L2 = CDK10/Cyclin L2 (Homo sapiens, UniProt Q15131); experiment: NanoBRET live-cell target engagement, CDK10-NanoLuc/Cyclin L2 in HEK-293; conditions: read-out: CDK10/L2 Inhibition at 10µM (%), 10µM
Sequence of CDK10/Cyclin L2 (Q15131 whole entry): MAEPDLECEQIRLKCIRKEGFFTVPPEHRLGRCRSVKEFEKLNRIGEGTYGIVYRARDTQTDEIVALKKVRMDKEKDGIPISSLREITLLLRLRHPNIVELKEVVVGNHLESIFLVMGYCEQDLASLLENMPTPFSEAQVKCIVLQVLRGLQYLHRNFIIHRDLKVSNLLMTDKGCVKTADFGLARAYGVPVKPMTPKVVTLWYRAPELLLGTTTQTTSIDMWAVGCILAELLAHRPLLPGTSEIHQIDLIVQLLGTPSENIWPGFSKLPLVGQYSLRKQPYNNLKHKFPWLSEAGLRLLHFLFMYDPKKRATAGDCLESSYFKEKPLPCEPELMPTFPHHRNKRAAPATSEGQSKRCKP

CDK11A/Cyclin L2 = target: T1, CDK11A/Cyclin L2 (Homo sapiens, UniProt Q9UQ88); experiment: NanoBRET live-cell target engagement, CDK11A-NanoLuc/Cyclin L2 in HEK-293; assay type: binding; conditions: 10µM, read-out: CDK11a/L2 Inhibition at 10µM (%)
T1 sequence (Q9UQ88 1-783): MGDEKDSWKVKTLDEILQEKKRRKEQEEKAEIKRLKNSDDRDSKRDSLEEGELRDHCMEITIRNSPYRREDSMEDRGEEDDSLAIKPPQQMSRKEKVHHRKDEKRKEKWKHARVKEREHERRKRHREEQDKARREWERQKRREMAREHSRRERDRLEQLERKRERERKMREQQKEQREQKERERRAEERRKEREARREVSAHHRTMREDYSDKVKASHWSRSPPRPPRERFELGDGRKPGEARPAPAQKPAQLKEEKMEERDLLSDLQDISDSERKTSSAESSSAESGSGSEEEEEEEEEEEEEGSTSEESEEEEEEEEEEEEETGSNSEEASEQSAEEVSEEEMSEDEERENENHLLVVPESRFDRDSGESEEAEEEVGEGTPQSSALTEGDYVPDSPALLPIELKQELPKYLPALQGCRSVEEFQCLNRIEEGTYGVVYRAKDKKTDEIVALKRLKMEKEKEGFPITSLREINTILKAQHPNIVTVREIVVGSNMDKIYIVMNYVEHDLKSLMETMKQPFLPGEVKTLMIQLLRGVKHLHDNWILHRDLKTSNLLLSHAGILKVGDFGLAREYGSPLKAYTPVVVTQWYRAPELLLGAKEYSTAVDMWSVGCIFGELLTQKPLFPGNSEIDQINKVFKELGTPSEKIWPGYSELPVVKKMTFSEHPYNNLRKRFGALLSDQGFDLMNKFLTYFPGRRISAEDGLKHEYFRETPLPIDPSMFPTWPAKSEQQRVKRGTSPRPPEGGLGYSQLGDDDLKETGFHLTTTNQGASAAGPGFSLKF

CDK15/Cyclin Y = CDK15/Cyclin Y (Homo sapiens, UniProt Q96Q40); experiment: NanoBRET live-cell target engagement, NanoLuc-CDK15/Cyclin Y in HEK-293; assay type: binding; conditions: 10µM, read-out: CDK15/Y Inhibition at 10µM (%)
CDK11B/Cyclin L2 = CDK11B/Cyclin L2 (Homo sapiens, UniProt P21127); experiment: NanoBRET live-cell target engagement, CDK11B-NanoLuc/Cyclin L2 in HEK-293; assay type: binding; conditions: 10µM, read-out: CDK11b/L2 Inhibition at 10µM (%)
Sequence of CDK11B/Cyclin L2 (P21127 1-782 isoform P21127-2): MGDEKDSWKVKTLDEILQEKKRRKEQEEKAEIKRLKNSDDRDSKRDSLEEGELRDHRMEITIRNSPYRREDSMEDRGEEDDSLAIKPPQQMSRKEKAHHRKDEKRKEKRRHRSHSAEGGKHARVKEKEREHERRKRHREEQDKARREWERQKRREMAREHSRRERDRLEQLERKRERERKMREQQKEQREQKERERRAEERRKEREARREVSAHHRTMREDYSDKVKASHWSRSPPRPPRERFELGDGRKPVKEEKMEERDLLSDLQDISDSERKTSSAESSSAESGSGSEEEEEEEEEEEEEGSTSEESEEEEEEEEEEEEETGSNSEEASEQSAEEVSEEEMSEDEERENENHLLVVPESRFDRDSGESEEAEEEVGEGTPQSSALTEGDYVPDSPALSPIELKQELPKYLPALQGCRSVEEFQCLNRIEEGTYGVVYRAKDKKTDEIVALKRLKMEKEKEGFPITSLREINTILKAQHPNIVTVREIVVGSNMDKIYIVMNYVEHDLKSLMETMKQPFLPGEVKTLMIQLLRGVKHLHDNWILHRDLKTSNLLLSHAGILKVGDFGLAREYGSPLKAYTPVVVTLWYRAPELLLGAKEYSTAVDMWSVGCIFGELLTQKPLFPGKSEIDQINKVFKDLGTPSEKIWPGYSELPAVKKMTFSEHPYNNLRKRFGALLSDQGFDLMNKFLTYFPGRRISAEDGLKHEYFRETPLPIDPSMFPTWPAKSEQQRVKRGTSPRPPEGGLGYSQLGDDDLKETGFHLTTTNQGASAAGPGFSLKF

CDK4/Cyclin D1 = CDK4/Cyclin D1 (Homo sapiens, UniProt P11802); experiment: NanoBRET live-cell target engagement, NanoLuc-CDK4/Cyclin D1 in HEK-293; assay type: binding; conditions: 10µM, read-out: CDK4/D1 Inhibition at 10µM (%)
CDK5/CDK5R1 = CDK5/CDK5R1 (Homo sapiens, UniProt Q00535); experiment: NanoBRET live-cell target engagement, CDK5-NanoLuc/CDK5R1 in HEK-293; assay type: binding; conditions: 10µM, read-out: CDK5/CDK5R1 Inhibition at 10µM (%)
Sequence of CDK5/CDK5R1 (Q00535 whole entry): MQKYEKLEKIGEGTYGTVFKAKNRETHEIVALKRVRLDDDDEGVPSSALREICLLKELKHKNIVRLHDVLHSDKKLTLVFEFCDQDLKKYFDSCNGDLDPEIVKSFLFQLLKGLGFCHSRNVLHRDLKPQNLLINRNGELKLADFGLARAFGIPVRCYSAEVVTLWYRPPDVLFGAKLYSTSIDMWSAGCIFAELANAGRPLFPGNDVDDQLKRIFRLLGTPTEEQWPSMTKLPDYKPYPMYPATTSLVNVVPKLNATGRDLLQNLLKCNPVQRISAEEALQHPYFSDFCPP
Sequence of CDK5/CDK5R1 (Q15078 whole entry partner): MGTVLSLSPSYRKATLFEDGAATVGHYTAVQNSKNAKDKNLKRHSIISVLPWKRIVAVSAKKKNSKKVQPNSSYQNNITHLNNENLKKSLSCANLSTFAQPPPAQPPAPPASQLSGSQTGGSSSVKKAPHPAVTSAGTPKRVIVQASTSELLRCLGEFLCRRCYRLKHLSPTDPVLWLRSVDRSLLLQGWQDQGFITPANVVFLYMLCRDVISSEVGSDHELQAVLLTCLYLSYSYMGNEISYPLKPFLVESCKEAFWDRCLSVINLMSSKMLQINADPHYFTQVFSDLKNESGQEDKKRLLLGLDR

CDK9/Cyclin K = CDK9/Cyclin K (Homo sapiens, UniProt P50750); experiment: NanoBRET live-cell target engagement, NanoLuc-CDK9/Cyclin K in HEK-293; assay type: binding; conditions: 10µM, read-out: CDK9/K Inhibition at 10µM (%)
Sequence of CDK9/Cyclin K (P50750 whole entry): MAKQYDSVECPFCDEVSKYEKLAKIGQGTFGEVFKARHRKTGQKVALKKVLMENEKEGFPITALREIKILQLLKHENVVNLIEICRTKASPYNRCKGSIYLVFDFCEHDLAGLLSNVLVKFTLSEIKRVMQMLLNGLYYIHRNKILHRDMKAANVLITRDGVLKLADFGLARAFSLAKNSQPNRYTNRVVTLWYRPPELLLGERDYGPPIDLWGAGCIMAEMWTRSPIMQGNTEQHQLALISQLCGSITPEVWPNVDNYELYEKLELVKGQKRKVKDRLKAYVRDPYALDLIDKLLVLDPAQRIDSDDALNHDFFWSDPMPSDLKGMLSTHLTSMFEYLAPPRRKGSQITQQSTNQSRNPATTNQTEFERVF
Sequence of CDK9/Cyclin K (O75909 whole entry partner): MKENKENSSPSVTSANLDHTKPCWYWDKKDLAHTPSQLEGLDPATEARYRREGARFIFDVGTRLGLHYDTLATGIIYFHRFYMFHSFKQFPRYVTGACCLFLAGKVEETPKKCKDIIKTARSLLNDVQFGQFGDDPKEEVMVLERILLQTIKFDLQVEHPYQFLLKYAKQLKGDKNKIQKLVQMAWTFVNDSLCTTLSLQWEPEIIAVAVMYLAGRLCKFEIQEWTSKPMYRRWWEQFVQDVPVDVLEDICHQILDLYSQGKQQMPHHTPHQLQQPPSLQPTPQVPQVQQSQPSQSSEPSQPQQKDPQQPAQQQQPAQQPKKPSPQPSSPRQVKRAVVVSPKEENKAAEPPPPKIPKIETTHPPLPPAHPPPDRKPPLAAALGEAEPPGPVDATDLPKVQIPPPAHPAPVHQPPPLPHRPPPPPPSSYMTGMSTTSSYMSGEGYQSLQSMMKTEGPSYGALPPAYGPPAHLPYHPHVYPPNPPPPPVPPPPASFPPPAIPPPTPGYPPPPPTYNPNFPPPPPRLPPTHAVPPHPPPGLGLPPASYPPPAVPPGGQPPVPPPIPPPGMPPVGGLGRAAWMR

CDK18/Cyclin Y = CDK18/Cyclin Y (Homo sapiens, UniProt Q07002); experiment: NanoBRET live-cell target engagement, CDK18-NanoLuc/Cyclin Y in HEK-293; assay type: binding; conditions: 10µM, read-out: CDK18/Y Inhibition at 10µM (%)

Sequence of CDK7 (P50613 whole entry): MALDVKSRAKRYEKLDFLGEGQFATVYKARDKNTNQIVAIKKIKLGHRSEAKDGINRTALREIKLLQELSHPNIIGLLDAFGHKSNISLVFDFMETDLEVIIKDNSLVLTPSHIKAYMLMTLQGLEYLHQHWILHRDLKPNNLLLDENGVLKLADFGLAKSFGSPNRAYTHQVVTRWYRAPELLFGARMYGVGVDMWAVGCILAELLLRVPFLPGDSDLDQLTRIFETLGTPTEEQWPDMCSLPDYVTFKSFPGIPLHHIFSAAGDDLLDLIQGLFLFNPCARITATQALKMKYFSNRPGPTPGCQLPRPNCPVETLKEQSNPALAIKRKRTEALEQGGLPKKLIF

CN(C)C/C=C/C(=O)Nc1ccc(C(=O)N2CCC[C@@H](Nc3ncc(Cl)c(-c4c[nH]c5ccccc45)n3)C2)cc1 [THZ531] gave an inhibition at 10 µM (CDK7; average of experiments) of 78.1%, an inhibition at 10 µM (CDK7; independent experiment 1) of 74.8% and an inhibition at 10 µM (CDK7; independent experiment 2) of 81.5%. It also gave an inhibition at 10 µM (CDK6/Cyclin D1; average of experiments) of 36.6%, an inhibition at 10 µM (CDK6/Cyclin D1; independent experiment 1) of 32% and an inhibition at 10 µM (CDK6/Cyclin D1; independent experiment 2) of 41.3%. The inhibition at 10 µM (CDK19/Cyclin C; average of experiments) was 55.3%, the inhibition at 10 µM (CDK19/Cyclin C; independent experiment 1) was 58.1% and the inhibition at 10 µM (CDK19/Cyclin C; independent experiment 2) was 52.6%. It also gave an inhibition at 10 µM (CDK17/Cyclin Y; average of experiments) of 63%, an inhibition at 10 µM (CDK17/Cyclin Y; independent experiment 1) of 73.4% and an inhibition at 10 µM (CDK17/Cyclin Y; independent experiment 2) of 52.6%. For the same compound, the inhibition at 10 µM (CDK20/Cyclin H; independent experiment 1) was 30.9%, the inhibition at 10 µM (CDK20/Cyclin H; independent experiment 2) was 52.4% and the inhibition at 10 µM (CDK16/Cyclin Y; independent experiment 1) was 75.1%. The inhibition at 10 µM (CDK16/Cyclin Y; independent experiment 2) was 49.9%, the inhibition at 10 µM (CDK14/Cyclin Y; average of experiments) was 41.8% and the inhibition at 10 µM (CDK14/Cyclin Y; independent experiment 1) was 22.4%. It also gave an inhibition at 10 µM (CDK14/Cyclin Y; independent experiment 2) of 61.2%, an inhibition at 10 µM (CDK8/Cyclin C; average of experiments) of 41% and an inhibition at 10 µM (CDK8/Cyclin C; independent experiment 1) of 30.9%. The inhibition at 10 µM (CDK8/Cyclin C; independent experiment 2) was 51.2%, the inhibition at 10 µM (CDK2/Cyclin E1; average of experiments) was 52.7% and the inhibition at 10 µM (CDK2/Cyclin E1; independent experiment 1) was 46.1%. The inhibition at 10 µM (CDK2/Cyclin E1; independent experiment 2) was 59.3%, the inhibition at 10 µM (CDK1/Cyclin E1; average of experiments) was 61.4% and the inhibition at 10 µM (CDK1/Cyclin E1; independent experiment 1) was 48.6%. It also gave an inhibition at 10 µM (CDK1/Cyclin E1; independent experiment 2) of 74.1%, an inhibition at 10 µM (CDK3/Cyclin E1; average of experiments) of 61.1% and an inhibition at 10 µM (CDK3/Cyclin E1; independent experiment 1) of 57.1%. The inhibition at 10 µM (CDK3/Cyclin E1; independent experiment 2) was 65.2%, the inhibition at 10 µM (CDK10/Cyclin L2; average of experiments) was 51% and the inhibition at 10 µM (CDK10/Cyclin L2; independent experiment 1) was 41.2%. It also gave an inhibition at 10 µM (CDK10/Cyclin L2; independent experiment 2) of 60.7%, an inhibition at 10 µM (CDK11A/Cyclin L2; average of experiments) of 46.9% and an inhibition at 10 µM (CDK11A/Cyclin L2; independent experiment 1) of 27.8%. It also gave an inhibition at 10 µM (CDK11A/Cyclin L2; independent experiment 2) of 65.9%, an inhibition at 10 µM (CDK15/Cyclin Y; average of experiments) of 80.5% and an inhibition at 10 µM (CDK15/Cyclin Y; independent experiment 1) of 75.6%. The inhibition at 10 µM (CDK15/Cyclin Y; independent experiment 2) was 85.5%, the inhibition at 10 µM (CDK11B/Cyclin L2; average of experiments) was 32.4% and the inhibition at 10 µM (CDK11B/Cyclin L2; independent experiment 1) was 30%. The inhibition at 10 µM (CDK11B/Cyclin L2; independent experiment 2) was 34.7%, the inhibition at 10 µM (CDK4/Cyclin D1; average of experiments) was 54.6% and the inhibition at 10 µM (CDK4/Cyclin D1; independent experiment 1) was 47.7%. It also gave an inhibition at 10 µM (CDK4/Cyclin D1; independent experiment 2) of 61.5%, an inhibition at 10 µM (CDK5/CDK5R1; average of experiments) of 45.3% and an inhibition at 10 µM (CDK5/CDK5R1; independent experiment 1) of 30.8%. It also gave an inhibition at 10 µM (CDK5/CDK5R1; independent experiment 2) of 59.9%, an inhibition at 10 µM (CDK9/Cyclin K; average of experiments) of 81.1% and an inhibition at 10 µM (CDK9/Cyclin K; independent experiment 1) of 78.5%. The inhibition at 10 µM (CDK9/Cyclin K; independent experiment 2) was 83.8%, the inhibition at 10 µM (CDK18/Cyclin Y; average of experiments) was 64.6% and the inhibition at 10 µM (CDK18/Cyclin Y; independent experiment 1) was 71.7%. The inhibition at 10 µM (CDK18/Cyclin Y; independent experiment 2) was 57.6%.
